# From patent US20250250227A1, “AMINO LIPID COMPOUND, PREPARATION METHOD THEREFOR, COMPOSITION THEREOF AND USE THEREOF” (SHENZHEN SHENXIN BIOTECHNOLOGY CO., LTD., priority 2022, published 2025)
# Assays:
# [1] = system: Female BALB/c mice; experiment: In vivo safety of hEPO mRNA lipid nanoparticle: serum alanine aminotransferase (ALT) enzyme activity; settings: hEPO mRNA LNP, 300 μL IV, serum 12 h after injection; FIG. 1
# Experimental: A human erythropoietin mRNA (hEPO mRNA)-encapsulating lipid nanoparticle formulation was prepared according to the method as described in Experimental Example 1, with replacing the luciferase mRNA (Fluc mRNA) with human erythropoietin mRNA (hEPO mRNA), with a concentration of hEPO mRNA of 0.2 g/L, a mass ratio of hEPO mRNA to Lipid of 1:10, a particle size of 90-130 nm, and an encapsulation efficiency of above 90% or higher.
# (§1) Animal preparation: Female BALB/c mice of 6-8 weeks old were selected and raised in an SPF grade breeding room. Animal testing was conducted in strict accordance with the guidelines of national health institutions and animal ethics requirements.
# In vivo Delivery: Prior to injection of the test LNP formulations, the LNP formulations were gently and repeatedly inverted to thoroughly mix the formulation samples. A corresponding amount of the formulation samples were aspirated with a 1 ml insulin syringe, and the LNP formulations were injected by tail vein injection (IV), with 5 mice per formulation. Each mouse was injected with 300 μL of the human erythropoietin mRNA (hEPO mRNA)-encapsulating lipid nanoparticle formulation.
# Serum acquisition: Blood samples of mice were collected 12 h after injection, placed in tubes without anticoagulants, and naturally coagulated at room temperature for 30-60 min, and then centrifuged at a speed of 3500 rpm for 10 min to obtain the supernatant, which was the serum.
# The detection of alanine transaminase was carried out according to instructions of the kit (Nanjing Jiancheng Bioengineering Institute, Catalog. No. C009-2-1), and a standard curve was made using the standard provided in the kit. D-PBS was used in the experiment, which was purchased from Sangon Biotech (Shanghai) Co., Ltd., Catalog No. E607009-0600.
# The method of detection of enzyme activity of alanine aminotransferase (ALT) in serum of the mice is as follows:
# • (1) Enzymatic reaction: 0, 2, 4, 6, 8 and 10 μL of […] sodium pyruvate standard solution were sequentially added to 5 μL of 0.1 mol/L phosphate buffer, and the volume was supplemented to 25 μL with a matrix solution, and repeatedly aspirating and spitting with a pipette for mixing well; • (2) Addition reaction: 20 μL 2,4-dinitrophenylhydrazine solution was added to all reaction wells in (1), mixed by aspirating and spitting, and then placed in an incubator at 37° C. to react for 20 min; • (3) Developing: 200 μL of 0.4 mol/L NaOH solution was added to all reaction wells in (2) to stop the reaction, mixed by aspirating and spitting, and incubated at room temperature for 15 min. The OD value of each well was measured at 510 nm in a microplate reader; and • (4) Data processing of standard curve: The corresponding absolute OD value for each well was obtained by subtracting the OD value for 0 μL well from the measured OD value for each well, the corresponding ALT Karmen units being 0, 28, 57, 97, 150 and 200 U/L, respectively. The standard curve was obtain by taking the absolute OD value as the abscissa and the corresponding Karmen unit as the ordinate.
# • (1) Reagent preparation: an ALT matrix solution was placed in an incubator at 37° C. for preheating; • (2) Enzymatic reaction: 5 μL diluted serum was aspirated and added to a 96-well plate, then 20 μL matrix solution was added to the corresponding sample well and mixed by repeatedly aspirating and spitting to avoid bubbling, and then placed in an incubator at 37° C. for 30 min; • (3) Addition reaction: 20 μL 2,4-dinitrophenylhydrazine was added to all reaction wells in (2), mixed by aspirating and spitting, and then reacted in an incubator at 37° C. for 20 min; • (4) Developing: 200 μL of 0.4 mol/L NaOH solution was added to all reaction wells in (3) to stop the reaction, mixed by aspirating and spitting, and then incubated at room temperature for 15 min. […]
# [2] = system: Female BALB/c mice; experiment: IFN-γ Elispot cellular immunity test, spleen lymphocytes of mice immunized with IN002.5.1 mRNA LNP; format: in vivo; settings: 50 μL IM, spleen on 7th day after immunization, FIG. 2-4
# Experimental: An IN002.5.1 mRNA-encapsulating lipid nanoparticle formulation was prepared according to the method as described in Experimental Example 1, with replacing the luciferase mRNA (Fluc mRNA) with IN002.5.1 mRNA, with a concentration of IN002.5.1 mRNA of 0.2 g/L, a mass ratio of IN002.5.1 mRNA to Lipid of 1:10, a particle size of 80-130 nm, and an encapsulation efficiency of 90% or higher.
# The sequence of IN002.5.1 mRNA is one obtained by replacing all uracil (u) in SEQ ID NO. 1 with N1-methylpseudouridine. Of note is that the t (thymine) in the RNA sequence, SEQ ID NO. 1, in the Sequence Listing is actually u (uracil), according to the WIPO Standard ST. 26 for nucleotide or amino acid sequence listing.
# as §1
# Immunization of mice: Prior to injection of the test LNP formulations, the LNP formulations were gently and repeatedly inverted to thoroughly mix the formulation samples. A corresponding amount of the formulation samples were aspirated with a 1 ml insulin syringe, and the LNP formulations were injected by intramuscular injection (IM) […], with 8 mice per formulation. Each mouse was injected with 50 μL of the IN002.5.1 mRNA encapsulating lipid nanoparticle formulation.
# Spleen acquisition: On the 7th day after immunization, 3 to 4 mice from each LNP immunization group were selected and euthanized, and their spleens were acquired in a super clean bench.
# Isolation of lymphocytes: The spleens of mice were taken out in a super clean bench. 7 mL of mouse lymphocyte separation solution was added to a 6-well cell culture plate. Mouse spleen cells were ground with a syringe piston, and the suspension of the spleen cells was filtered through a cell screen and immediately transferred to a 15 mL centrifuge tube. […] RPMI 1640 medium was slowly added with keeping the liquid interface distinct. After centrifugation at 800 g with a horizontal rotor at room temperature for 30 minutes, a clear stratification can be visible. The lymphocyte layer was aspirated, then added with 10 mL RPMI 1640 medium, and inverted for washing. The cells were collected by centrifugation at 250 g for 10 min at room temperature, and the red blood cells were lysed. After completing lysis of red blood cells, the supernatant was poured, and the cells were resuspended in culture medium and counted.
# Addition of stimulant and culture of lymphocyte: RPMI-1640 medium containing 10% fetal bovine serum was used to activate the pre-coated plate. After standing at room temperature for at least 30 min, the medium was removed, and a cell suspension at adjusted concentration was added ([…]). The medium used to resuspend the cells was used as a background negative control. 10 μL positive stimulant working solution (PMA+Ionomycin (dissolved in DPBS) was added to a positive control well; […] medium used to resuspend the cells was added to a negative control well; 10 µL/well of a peptide library diluted with RPMI 1640 was added to experimental wells. After all samples and the stimulant were added, the plate was covered, incubated in an incubator with 5% CO2 at 37° C. for 16-24 h.
# Elispot detection after culture: The cells and the culture medium in the wells were dumped, and the wells were lysed with 200 μL/well of ice-cold deionized water at 4° C. for 10 min. The liquid in the wells were shaken out, and the wells were washed five times with PBS buffer. The wells were incubated with 100 μL/well of 1 μg/ml detection antibody for 2 h at room temperature; and after washing the plate 5 times with PBS, the wells were incubated with 100 μL/well of 1000-fold diluted enzyme labeled avidin (Streptavidin-HRP) for 1 h at room temperature. […]
# [3] = system: Female BALB/c mice; experiment: Performance evaluation of in vivo delivery of Fluc mRNA lipid nanoparticle (IVIS, body and organs); settings: Fluc mRNA LNP; for Liver (fluorescence expression intensity) / Spleen (fluorescence expression intensity): 75 μL IV; for Liver (fluorescence expression intensity) / Spleen (fluorescence expression intensity) / Total flux (fluorescence expression intensity) / (Spleen/Total Flux) * 100%: 6 hours after injection; for Liver (fluorescence expression intensity) / Spleen (fluorescence expression intensity) / Total flux (fluorescence expression intensity): IVIS; for Total flux (fluorescence expression intensity): 75 μL tail vein injection (IV); for (Spleen/Total Flux) * 100% / Multiple of spleen delivery/total delivery to amino lipid compound 118: IV; for Multiple of spleen delivery/total delivery to amino lipid compound 118: relative to amino lipid compound 118
# Experimental: as §1
# In vivo Delivery: prior to injection of the test LNP formulations, the LNP formulations were gently and repeatedly inverted to thoroughly mix the formulation samples. A corresponding amount of the formulation samples were aspirated with a 1 ml insulin syringe, and the LNP formulations were injected by tail vein injection (IV), with 3 mice in duplicate per formulation. Each mouse was injected with 75 μL of the luciferase mRNA (Fluc mRNA)-encapsulating lipid nanoparticle formulation prepared in Experimental Example 1.
# 6 hours after injection of LNP formulations, mice were injected with 200 μL D-Luciferin luciferase developing substrate (Catalog No. 122799; Manufacturer: Perkin Elmer). After the substrate was injected, the mice were anesthetized with isoflurane inhalation, and the injection time of luciferase developing substrate was recorded.
# The encapsulation efficiency of the lipid nanoparticle encapsulating luciferase mRNA (Fluc mRNA) with a representative amino lipid compound and the fluorescence expression intensity induced by the same are shown in Table 4, with the amino lipid compound 118 as a control.
# The multiple of spleen delivery/total delivery of fluorescence expression intensity induced by lipid nanoparticle encapsulating luciferase mRNA (Fluc mRNA) with a representative amino lipid compound to amino lipid compound 118 is shown in Table 5.
# [4] = Preparation and characterisation of mRNA-encapsulating lipid nanoparticle (encapsulation efficiency, particle size); format: physicochemical; settings: LNP encapsulating Fluc mRNA; Lipid:DSPC:CHO-HP:M-DMG-2000 48:10:40.5:1.5
# Experimental: A specified amount of Fluc mRNA stock solution, 0.2 M sodium acetate buffer, and DEPC water were added to a container, and mixed well to obtain a water phase;
# The amino lipid compound of the present disclosure, a helper lipid, a structural lipid, and a PEG-lipid were separately dissolved in absolute ethanol to prepare respective solutions at concentrations of 20 mg/mL, 10 mg/mL, 20 mg/mL, and 25 mg/mL, respectively. The above four solutions were pipetted at a molar ratio of Lipid:DSPC:CHO—HP:M-DMG-2000 of 48:10:40.5:1.5, and mixed well to prepare an alcohol phase. • (2) Encapsulation: The water phase and the alcohol phase were injected into a microfluidic chip at a flow rate of water phase: alcohol phase=12 mL/min: 4 mL/min by using a microfluidic preparation instrument (MPE-L2), and encapsulation was carried out at a flow rate of water phase: alcohol phase=9 mL/min: 3 mL/min to obtain mRNA-encapsulating lipid nanoparticle (mRNA-LNP). • (3) Dialysis: The product of step (2) was loaded in a dialysis bag and placed in a Tris Buffer-8% sucrose solution for replacement to remove ingredients such as residual ethanol, unassembled lipids. Dialysis was conducted for 2 h with magnetic stirring at room temperature and under protection from light (dialysate was replaced every 1 hour). • (4) The product of step (3) was sterilized by passing through a […] microporous membrane, and then packaged.
# Lipid nanoparticle formulations encapsulating Fluc mRNA were prepared, with a concentration of Fluc mRNA of 0.2 g/L, a mass ratio of Fluc mRNA to Lipid of 1:10, a particle size of 80-130 nm, and a encapsulation efficiency of 85% or higher.
# The encapsulation efficiency of the lipid nanoparticle encapsulating luciferase mRNA (Fluc mRNA) with a representative amino lipid compound and the fluorescence expression intensity induced by the same are shown in Table 4, with the amino lipid compound 118 as a control. […]
# [5] = system: Female BALB/c mice; experiment: Humoral immunity test for total binding IgG antibody (ELISA, SARS-COV-2 antigen protein) in serum of immunized mice; format: in vivo; settings: IN002.5.1 mRNA LNP, 50 μL IM, serum on 14th day after immunization; FIG. 5-6
smiles,measurement,setting,value
CCCCCCC(CCCCCC)OC(=O)CCCCCCCCC(CCCCCCCCC(=O)OC(CCCCCC)CCCCCC)OC(=O)N(CCCCC(=O)OCCCC)CCCN(C)C [Compound 255],ALT enzyme activity (Karmen unit) compared to ALC0315 and SM-102,[1],significantly lower ALT enzyme activity
CCCCCCC(CCCCCC)OC(=O)CCCCCCCCC(CCCCCCCCC(=O)OC(CCCCCC)CCCCCC)OC(=O)N(CCCCC(=O)OC(C)CC)CCCN(C)C (stereo not shown) [Compound 302],Cellular immunity effect (IFN-γ Elispot) compared to ALC0315,[2],better cellular immunity effect
CCCCCCC(CCCCCC)OC(=O)CCCCCCCCC(CCCCCCCCC(=O)OC(CCCCCC)CCCCCC)OC(=O)N(CCCC(=O)OC(C)C)CCCN(C)C [Compound 307],Cellular immunity effect (IFN-γ Elispot) compared to ALC0315,[2],better cellular immunity effect
CCCCCCC(CCCCCC)OC(=O)CCCCCCCCC(CCCCCCCCC(=O)OC(CCCCCC)CCCCCC)OC(=O)N(CCCC(=O)OCCCCC)CCCN(C)C [Compound 260],ALT enzyme activity (Karmen unit) compared to ALC0315 and SM-102,[1],significantly lower ALT enzyme activity
same,Liver (fluorescence expression intensity),[3],9.60E+07
same,Spleen (fluorescence expression intensity),[3],3.27E+06
same,Total flux (fluorescence expression intensity),[3],4.11E+08
same,(Spleen/Total Flux) * 100%,[3],0.80%
same,Multiple of spleen delivery/total delivery to amino lipid compound 118,[3],2.34
same,Encapsulation efficiency,[4],95.36%
CCCCCCC(CCCCCC)OC(=O)CCCCCCCCC(CCCCCCCCC(=O)OC(CCCCCC)CCCCCC)OC(=O)N(CCCN(C)C)CC(=O)OCCC [Compound 269],Humoral immunity effect (IgG titer) compared to ALC0315,[5],better humoral immunity effect
CCCCCCC(CCCCCC)OC(=O)CCCCCCCCC(CCCCCCCCC(=O)OC(CCCCCC)CCCCCC)OC(=O)N(CCCC(=O)OCCCC)CCCN(C)C [Compound 259],ALT enzyme activity (Karmen unit) compared to ALC0315 and SM-102,[1],significantly lower ALT enzyme activity
same,Liver (fluorescence expression intensity),[3],1.37E+08
same,Spleen (fluorescence expression intensity),[3],1.29E+07
same,Total flux (fluorescence expression intensity),[3],6.40E+08
same,(Spleen/Total Flux) * 100%,[3],2.02%
same,Multiple of spleen delivery/total delivery to amino lipid compound 118,[3],5.93
same,Encapsulation efficiency,[4],94.08%
CCCCCCC(CCCCCC)OC(=O)CCCCCCCCC(CCCCCCCCC(=O)OC(CCCCCC)CCCCCC)OC(=O)N(CCCCCC(=O)OCCCC)CCCN(C)C [Compound 252],ALT enzyme activity (Karmen unit) compared to ALC0315 and SM-102,[1],significantly lower ALT enzyme activity
